# Source: patent EP0563386A1, “ANTICANCER COMPOSITION AND COMPOUND” (NIPPON SHINYAKU COMPANY, LIMITED, priority 1990, dated 1992)
# Where a name gives a salt, the structure may show the parent alone.
# Key:
# [1] = tested on: cancer patients; test: Clinical use with radiotherapy and chemotherapy, 45 cancer cases (Test Example 7); type: in vivo
# Description: (§1) Predetermined radiotherapy [each proven focus was irradiated with cobalt 60 gamma rays, about 28 Gy, in simply divided doses at intervals of several days and oily bleomycin was administered intramuscularly in a dose range of 0.5-3 mg/day (a total of not more than 50 mg) 30 minutes before and 30 minutes after each irradiation] was given to the following cancer patients and concomitantly the following prescription was given orally.
# [2] = tested on: WiDr (human colon cancer); test: Tumor growth inhibition, WiDr implant in nude mice (Test Example 1); type: in vivo, BALB/c nude mice; conditions: implant volume on day 18 after transplantation divided by volume at transplantation; irsogladine maleate 10 mg/kg orally once daily from day 14; cyclophosphamide 150 mg/kg intraperitoneally once on day 14; groups of 10
# Description: WiDr (human colon cancer) cells subcultured in BALB/c nude mice were dissected to prepare cubes, about 2 mm³ each. These cubes were transplanted subaxillarily into separate BALB/c nude mice using a transplantation needle. The animals were divided into groups of 10 individuals on day 10 after transplantation and the body weight and the diameter of the implant were serially determined. As the compound of this invention, irsogladine maleate, 10 mg/kg, was suspended in 0.5% methylcellulose solution and administered orally once daily beginning day 14 after transplantation. Cyclophosphamide, 150 mg/kg, was dissolved in PBS and administered intraperitoneally once on day 14 after transplantation. The control group received 0.5% methylcellulose solution orally once daily beginning day 14 after transplantation.
# The volume of the implant on day 18 after transplantation was divided by the volume at trans plantation. […]
# The effect of the compound of this invention as an anticancer agent is clear.
# [3] = tested on: cancer patients; test: Clinical use with radiotherapy and chemotherapy, 39 case reports (Test Example 8); type: in vivo
# Description: as §1, with “[…],” for “about 28 Gy,”
# Following Test Example 7, the clinical effect was investigated. Radiotherapy, chemotherapy and administration of irsogladine maleate were performed in the same manner as in Test Example 7.
# [4] = tested on: Meth A fibrosarcoma; test: Meth A fibrosarcoma tumor volume in mice (Test Example 2); type: in vivo, BALB/c mice
# Description: • (1) The homologus tumor Meth A fibrosarcoma subcultured (ascites type) in BALB/c mice, 5 x 10^5 cells, was transplanted subcutaneously at the flank of 6-week-old male BALB/c mice. Mice having a tumor volume of 70-100 mm³ were selected and divided into groups of 9. Oral single daily administration of the test compound was started and the body weight and tumor volume were serially determined. The volume was determined using the same calculation formula as shown in Test Example 1. The compound of the invention irsogladine maleate, 10 mg/kg, suspended in 0.5% methylcellulose maleate and 5-fluorouracil, 15 mg/kg, dissolved in 0.5% methylcellulose solution were respectively administered orally. The control group received 0.5% methylcellulose solution orally. […] The effect of the com pound of this invention as an anticancer agent is, thus, clear. • (2) As in the above test, mice having a tumor volume of 160-180 mm³ were selected and subjected to the same test as above. The compound of this invention irsogladine maleate, 10 mg/kg, 5-flurorouracil, 30 mg/kg, or as a combination therapy, irsogladine maleate, 10 mg/kg, plus 5-fluorouracil, 30 mg/kg, were administered orally. The control group received the same control material as in the above test orally. […] The anticancer adjuvant activity of the compound of this invention to 5-FU is clear.
# The open circle stands for control, the open triangle for 5-FU and the closed circle for the compound of the invention. The tumor volume (mm³) is plotted on the vertical axis and the number of days after drug administration on the horizontal axis.
# The open circle stands for control, the open triangle for F-5U, the closed circle for the compound of the invention, the open square for the combination therapy. The tumor volume (mm³) is plotted on the vertical axis and the number of days after drug administration on the horizontal axis.
smiles,measurement,setting,value
Nc1nc(N)nc(-c2cc(Cl)ccc2Cl)n1 [irsogladine maleate],disappearance of tumor by palpation or diagnostic imaging,"[1]; 11 cases of breast cancer, 4 weeks after initiation, 2 mg/day x 2 orally with radiotherapy and chemotherapy",disappearance of tumor was confirmed
same,disappearance of tumor by palpation or diagnostic imaging,"[1]; 13 cases of pharyngeal cancer and cancer of upper esophagus, 4 weeks after initiation, 2 mg/day x 2 orally with radiotherapy and chemotherapy",disappearance of tumor was confirmed
same,cases with disappearance of tumor confirmed by palpation or diagnostic imaging,[1]; all 45 cases of Test Example 7,45 cases
same,disappearance of tumor by palpation or diagnostic imaging,"[1]; five cases of rectal cancer, 4 weeks after initiation, 2 mg/day x 2 orally with radiotherapy and chemotherapy",disappearance of tumor was confirmed
same,disappearance of tumor by palpation or diagnostic imaging,"[1]; nine cases of maxillary cancer and epipharyngeal cancer, 4 weeks after initiation, 2 mg/day x 2 orally with radiotherapy, bleomycin, carmofur, doxifluridine, tegafur",disappearance of tumor was confirmed
same,cases with disappearance of tumor histologically verified by biopsy,[1]; of the 45 cases of Test Example 7,14 cases
same,disappearance of tumor by diagnostic imaging,"[1]; one case of stomach cancer, 4 weeks after initiation, 2 mg/day x 2 orally with radiotherapy and chemotherapy",disappearance of tumor was confirmed
same,disappearance of tumor by palpation or diagnostic imaging,"[1]; six cases of bladder cancer, renal cancer, ovarian cancer, etc., 4 weeks after initiation, 2 mg/day x 2 orally with radiotherapy and chemotherapy",disappearance of tumor was confirmed
same,Tumor volume ratio,[2],1.52 ± 0.08
same,clinical outcome,"[3]; (1) case (1): person, SCC of the pharynx metastasized to the right neck, about 15 days, with irradiation and chemotherapy",complete resoltuion of the tumor
same,clinical outcome,"[3]; (1) case (2): person, SCC of the pharynx metastasized to the left neck, with radiotherapy and chemotherapy",complete resolution of the tumor
same,clinical outcome,"[3]; (1) case (3): person, pharyngeal cancer with lymph node and lung metastasis, with radiotherapy and chemotherapy",complete resolution of the tumor
same,clinical outcome,"[3]; (1) case (4): person, SCC of the anterior association of the vocal cord, pharyngeal cancer, with radiotherapy and chemotherapy",complete resolution of the tumor
same,clinical outcome,"[3]; (1) case (5): person, SCC of the pharynx, metastasis to the mediastinum, with radiotherapy and chemotherapy",complete resolution of the tumor
same,clinical outcome,"[3]; (1) case (6): person, tumor in the anterior association of the vocal cord, with radiotherapy and chemotherapy",partial resolution of the tumor
same,clinical outcome,"[3]; (1) case (7): person, SCC of the pharynx, with radiotherapy and chemotherapy",complete resolution of the tumor
same,clinical outcome,"[3]; (2) case (1): person, TCC of the ureter, after resection, with radiotherapy and chemotherapy",complete resolution of the tumor
same,clinical outcome,"[3]; (2) case (2): person, TCC of the ureter, relapsed, with radiotherapy and chemotherapy",partial resolution of the tumor
same,clinical outcome,"[3]; (3) case (1): person, SCC of the tongue, metastasis to the left neck, with radiotherapy and chemotherapy",complete resolution of the tumor
same,clinical outcome,"[3]; (3) case (2): person, SCC of the tongue with metastasis to the left neck, with radiotherapy and chemotherapy",complete resolution of the tumor
same,clinical outcome,"[3]; (4) case (1): person, recurrent breast cancer with bone metastasis, with radiotherapy and chemotherapy",died of injury of cervical vertebra and paraplegia
same,clinical outcome,"[3]; (4) case (2): person, recurrent breast cancer, invasive duct carcinoma, with radiotherapy and chemotherapy",complete resolution of the tumor
same,clinical outcome,"[3]; (5) case (1): person, breast cancer (first on-set), 3 months, with radiotherapy, chemotherapy and resection",complete resolution of the tumor
same,clinical outcome,"[3]; (6) case (1): person, SCC of the epipharynx, metastases to lung and lumbar vertebra, with radiotherapy and chemotherapy",partial resolution of the tumor
same,clinical outcome,"[3]; (6) case (2): person, SCC of epipharynx with metastasis to the right neck, with radiotherapy and chemotherapy",complete resolution of the tumor
same,clinical outcome,"[3]; (6) case (3): person, pulmonary metastasis from epipharynx SCC, with radiotherapy and chemotherapy, patient later died after mixed infection",tumor disappeared
same,clinical outcome,"[3]; (6) case (4): person, maxillary/epipharyngeal cancer group, with irradiation and chemotherapy",partially resolved
same,clinical outcome,"[3]; (7) case (1): person, tumor of the right anterior ear, SCC of parotid gland, with radiation therapy and chemotherapeutic agents",tumor disappeared
same,clinical outcome,"[3]; (7) case (2): person, SCC of the right external auditory canal, with radiotherapy, chemotherapy and resection",complete resolution
same,clinical outcome,"[3]; (7) case (3): person, SCC relapsed in the left anterior ear, with radiotherapy, chemotherapy and resection",completely disappeared
same,clinical outcome,"[3]; (8) case (1): person, metastatic lung cancer, primary rectal cancer, dotted shadow of right lower lung field, with radiotherapy and chemotherapy",reduced to 1/4
same,clinical outcome,"[3]; (8) case (2): person, metastatic lung cancer, primary hypopharynx cancer, with radiotherapy and chemotherapy",disappeared completely
same,clinical outcome,"[3]; (8) case (3): person, metastatic lung cancer, primary esophageal cancer (upper), with radiotherapy and chemotherapy",disappeared completely
same,clinical outcome,"[3]; (8) case (4): person, primary pharyngeal cancer, metastases to hili of the lung, with radiotherapy and chemotherapy",the enlargement of the pharynx and of the hili of the lung disappeared
same,clinical outcome,"[3]; (8) case (5): person, primary pancreatic carcinoma, pulmonary metastasis, with radiotherapy and chemotherapy",disappeared completely
same,clinical outcome,"[3]; (8) case (6): person, primary colon cancer, pulmonary metastasis, with radiotherapy and chemotherapy",Partial resolution
same,clinical outcome,"[3]; (9) case (1): person, recurrent ovarian cancer, with chemotherapeutic agents",remained unchanged
same,clinical outcome,"[3]; (9) case (2): person, ovarian cancer, metastases to Virchow's nodes, abdominal tumor, with radiotherapy and chemotherapy",disappeared completely
same,clinical outcome,"[3]; (9) case (3): person, uterine cancer, SCC, with radiation therapy (40 Gy) and chemotherapy",partial resolution of the tumor
same,clinical outcome,"[3]; (9) case (4): person, stomach cancer with ascites, after resection, with irradiation and chemotherapy",died of DIC
same,clinical outcome,"[3]; (10) case (1): person, colorectal cancer, tubular ADC, with radiotherapy and chemotherapy",died of mixed infection
same,clinical outcome,"[3]; (10) case (2): person, colorectal cancer with pulmonary and nodal metastasis, ascites, with radiotherapy and chemotherapy",ascites were reduced and the patient became ambulant
same,clinical outcome,"[3]; (10) case (3): person, tumor of the right hypogastrium, CK and ADC, with radiotherapy and chemotherapy",ascites were removed
same,clinical outcome,"[3]; (11) case (1): person, liposarcoma of the left chest wall with metastasis to the right mediastinum, with radiotherapy and chemotherapy",Partial resolution
same,clinical outcome,"[3]; (11) case (2): person, pelvic chondrosarcoma, treatment from November 1990 with radiotherapy and chemotherapy",living as of February 1991
same,clinical outcome,"[3]; (11) case (3): person, chondrosarcoma of the right leg, pulmonary metastasis, with radiotherapy and chemotherapy",Pain was relieved
same,clinical outcome,"[3]; (11) case (4): person, malignant lymphoma, tumor 4 x 4 cm at start, with radiotherapy and chemotherapy",Complete resolution
same,clinical outcome,"[3]; (11) case (5): person, malignant multiple schwannoma vertebrae, with radiotherapy and chemotherapy",paralysis of limbs was found
same,patients who died,[3]; of the 39 patients of Test Example 8,four
same,"complete or partial resolution, overall",[3]; summary of the 39 patients of Test Example 8,no patients in whom complete or partial resolution was not obtained
same,tumor volume (effect versus 5-FU),"[4]; Test (1): start tumor volume 70-100 mm³, irsogladine maleate 10 mg/kg orally once daily, comparator 5-fluorouracil 15 mg/kg orally, Fig. 1","effect comparable to that of 5-FU, 15 mg/kg"
same,"tumor-inhibitory effect, single drug","[4]; Test (2): start tumor volume 160-180 mm³, irsogladine maleate 10 mg/kg or 5-fluorouracil 30 mg/kg orally, Fig. 2",tumor-inhibitory effect
same,"tumor-inhibitory effect, combination therapy","[4]; Test (2): start tumor volume 160-180 mm³, irsogladine maleate 10 mg/kg plus 5-fluorouracil 30 mg/kg orally, Fig. 2",more remarkable
